Data on ten compounds can be found in PubChem BioAssay (NCI).

Where “and” joins values, the source holds several entries; their conditions need not be identical. Equal entries are not always repeated.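 48-hour exposure; five concentrations; linearly interpolated endpoints. Abbreviation: GI50, concentration required for 50% inhibition of growth. The concentration for full growth arrest is given as TGI.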

Among the test systems are SNB-75 CNS; HCC-2998 colon; OVCAR-4 ovarian; HCT-116 colon; U251 CNS; OVCAR-5 ovarian; HOP-62 NSCLC; TK-10 renal; M14 melanoma; A549 NSCLC.
Assay in all cases: growth of human tumour cells (NCI), 48 h

`Cc1cc(C(=O)Nc2nc3cccc(Cl)c3n2[C@@H]2CCCCN(C(=O)/C=C/CN(C)C)C2)ccn1`: the GI50 is 5.63 µM in the test with SNB-75 CNS; 15.6 µM with HCC-2998 colon; 7.18 µM with OVCAR-4 ovarian; 6.5 µM with HCT-116 colon; 11.2 µM in the test with U251 CNS; 17.7 µM in the test with OVCAR-5 ovarian. For the same compound, the GI50 in the test on HOP-62 NSCLC is 12.5 µM; in the test on TK-10 renal, 1.07 µM; in the test on M14 melanoma it was 13.7 µM; in the test on A549 NSCLC, 6.37 µM. Moreover, the TGI in the test on SNB-75 CNS is 19 µM; with HCC-2998 colon it was 30.9 µM; in the test with OVCAR-4 ovarian, 26.4 µM; with HCT-116 colon it was 19.5 µM; in the test with U251 CNS, 26 µM; in the test on OVCAR-5 ovarian, 47.6 µM. The TGI with HOP-62 NSCLC worked out at 27.4 µM; in the test with TK-10 renal, 16.4 µM; with M14 melanoma, 27.5 µM; in the test with A549 NSCLC, 31.8 µM.

Consider `CC(C)CCSC1=CC(=O)c2ccccc2C1=O`, for which the GI50 with SNB-75 CNS was 0.811 µM; with HCC-2998 colon, 21.5 µM; in the test with OVCAR-4 ovarian, 1.57 µM; with HCT-116 colon, 1.42 µM; with U251 CNS, 8.11 µM; with OVCAR-5 ovarian, 18.1 µM. Also, the GI50 in the test on HOP-62 NSCLC is 23.5 µM; in the test on TK-10 renal, 12.4 µM; in the test on M14 melanoma it was 15.6 µM; with A549 NSCLC, 32.6 µM. The TGI is over 46.9 µM with SNB-75 CNS; 45.7 µM with HCC-2998 colon; 3.05 µM in the test with OVCAR-4 ovarian; 2.89 µM in the test with HCT-116 colon; 21.5 µM in the test with U251 CNS; 34 µM with OVCAR-5 ovarian. In addition, the TGI in the test with HOP-62 NSCLC was over 59.1 µM; with TK-10 renal it was 24.8 µM; in the test with M14 melanoma, 33.4 µM; in the test on A549 NSCLC, over 82.8 µM.

As to `CCN(CC)c1ccc(C2CC(c3cc(OC)c(OC)c(OC)c3)=NN2)cc1` (stereo not drawn), the GI50 in the test with SNB-75 CNS was 0.372 µM; in the test on HCC-2998 colon, 1.15 µM; in the test on OVCAR-4 ovarian it was 4.34 µM; in the test on HCT-116 colon, 0.744 µM; with U251 CNS, 0.42 µM; in the test with OVCAR-5 ovarian, 5.12 µM. In addition, the GI50 in the test on HOP-62 NSCLC is 0.456 µM; in the test on TK-10 renal it was 36 µM; in the test with M14 melanoma, 1.16 µM; in the test with A549 NSCLC, 0.591 µM. Moreover, the TGI in the test on HCC-2998 colon is over 27 µM; with OVCAR-4 ovarian, over 100 µM; with HCT-116 colon, over 100 µM; in the test with U251 CNS, over 100 µM; in the test on OVCAR-5 ovarian it was over 100 µM; in the test on HOP-62 NSCLC it was over 21.1 µM. In addition, the TGI with TK-10 renal was over 100 µM; in the test on M14 melanoma it was over 100 µM; with A549 NSCLC it was over 32.2 µM.

As to `CCc1c2c(nc3cc4c(c(N)c13)OCO4)-c1cc3c(c(=O)n1C2)COC(=O)[C@]3(O)CC`, the GI50 with SNB-75 CNS was under 0.001 µM; with HCC-2998 colon, 0.0317 µM and 0.0431 µM; with OVCAR-4 ovarian it was 0.13 µM and 0.35 µM; with HCT-116 colon, 0.174 µM; in the test with U251 CNS, under 0.001 µM; in the test on OVCAR-5 ovarian, 0.702 µM and 0.0948 µM. Also, the GI50 with HOP-62 NSCLC was under 0.001 µM; in the test on TK-10 renal, 3.03 µM and 0.483 µM; in the test on M14 melanoma it was under 0.001 µM; in the test on A549 NSCLC, under 0.001 µM. Moreover, the TGI is 6.38 µM and 0.676 µM in the test with HCC-2998 colon; over 100 µM with OVCAR-4 ovarian; 24.6 µM in the test on HCT-116 colon; 0.0326 µM and 0.174 µM in the test with U251 CNS; 0.409 µM with OVCAR-5 ovarian; 6.25 µM with TK-10 renal. In addition, the TGI with M14 melanoma is 1.03 µM; in the test on A549 NSCLC, 1.01 µM and 1.47 µM.

Regarding `CO/[N+]([O-])=C\C(=O)N/C=C/C(=O)O`, the TGI in the test with SNB-75 CNS, in the test with HCC-2998 colon, in the test on OVCAR-4 ovarian, in the test on HCT-116 colon, with U251 CNS and in the test with OVCAR-5 ovarian was over 100 µM throughout. Further, the TGI in the test on HOP-62 NSCLC and in the test on M14 melanoma was over 100 µM throughout.

Turning to `NCCCCCCCCn1c2c(c3ccccc3c1=O)C(=O)c1ccccc1-2`, the GI50 with SNB-75 CNS is 7.65 µM; in the test with HCC-2998 colon, 1.89 µM; with OVCAR-4 ovarian, 4.34 µM; in the test on U251 CNS it was 13.4 µM; with OVCAR-5 ovarian, 2.67 µM; in the test on HOP-62 NSCLC, 2.13 µM. Moreover, the GI50 with TK-10 renal was 1.93 µM; in the test on M14 melanoma, 3.4 µM; with A549 NSCLC, 8.93 µM. Besides, the TGI in the test on SNB-75 CNS is 26.8 µM; in the test with HCC-2998 colon, 3.75 µM; in the test with OVCAR-4 ovarian, 27.4 µM; with U251 CNS, 35.9 µM; with OVCAR-5 ovarian it was 7.89 µM; with HOP-62 NSCLC, 4.69 µM. In addition, the TGI in the test with TK-10 renal amounted to 3.88 µM; in the test on M14 melanoma, 10.4 µM; in the test on A549 NSCLC, 50.8 µM.

Take `NC(=NCCCC1(c2ccccc2)CCCC1)Nc1ccc(Cl)cc1`: the GI50 with SNB-75 CNS was 1.07 µM; with HCC-2998 colon, 1.66 µM; in the test with OVCAR-4 ovarian it was 1.68 µM; with HCT-116 colon, 1.44 µM; in the test with U251 CNS, 1.69 µM; with HOP-62 NSCLC, 1.69 µM. Further, the GI50 in the test on TK-10 renal is 1.38 µM; in the test on M14 melanoma, 1.59 µM; in the test on A549 NSCLC, 1.89 µM. Further, the TGI came to 2.31 µM in the test with SNB-75 CNS; 3.08 µM in the test with HCC-2998 colon; 3.17 µM in the test with OVCAR-4 ovarian; 2.86 µM in the test on HCT-116 colon; 3.11 µM in the test on U251 CNS; 3.36 µM in the test on HOP-62 NSCLC. Further, the figures for the TGI with TK-10 renal, in the test on M14 melanoma and in the test with A549 NSCLC were 2.75 µM, 3.27 µM and 3.61 µM, respectively.

Take `COc1cc2c3c(c4ccc(OC)c(OC)c4c2cc1OC)CN1CCC[C@@H]1C3`: the TGI in the test on SNB-75 CNS is 0.0947 µM; with HCC-2998 colon it was 1.78 µM; with OVCAR-4 ovarian it was 1.42 µM; in the test on HCT-116 colon, 3.1 µM; in the test with U251 CNS it was over 23.3 µM; in the test on OVCAR-5 ovarian, 17.1 µM. Also, the TGI was determined as 39.8 µM in the test on HOP-62 NSCLC, 3.88 µM in the test with TK-10 renal and 2.56 µM in the test on M14 melanoma.

As to `COCc1c(CO)cnc(C)c1OC1OC(CO)C(O)C(O)C1O` (stereo not drawn), the TGI in the test on SNB-75 CNS, in the test on HCC-2998 colon, in the test with OVCAR-4 ovarian, with HCT-116 colon, in the test on U251 CNS and in the test on OVCAR-5 ovarian was over 100 µM each time. Also, the TGI in the test on HOP-62 NSCLC, in the test on M14 melanoma and in the test with A549 NSCLC was over 100 µM in each case.

With `COc1ccc2c(c1O)C(=O)C(CCC(=O)O)CC2` (stereo not drawn), the TGI in the test with SNB-75 CNS, with HCC-2998 colon, in the test with OVCAR-4 ovarian, with HCT-116 colon, in the test with U251 CNS and in the test on HOP-62 NSCLC was over 100 µM throughout. Further, the TGI in the test with TK-10 renal, in the test with M14 melanoma and in the test with A549 NSCLC was over 100 µM in each case.
